Results on six compounds are retold here after US11318134B2, “Benzamide compounds” (priority 2018, dated 2022).

One assay deals with Bcl-XL (Homo sapiens (Human), UniProt Q07817). Kind of assay: Bcl-XL HTRF assay (FAM-Bad peptide). The format is binding. The following applies: HTRF, 3 nM Bcl-XL, 40 nM FAM-Bad peptide; read-out: Bc1-XL IC50. In general terms: In TR-FRET formats the signal depends on donor and acceptor labels being close together.
The next assay concerns RS4;11 cells. In words: RS4;11 cell proliferation assay (CellTiter-Glo). The format is cell-based. The settings on record: Homo sapiens, RS4-11, 48 h, read-out: RS4;11 (nM), CTG IC50. For orientation: In ATP-based viability assays light output follows the ATP content of the culture.
The subject of the next assay is NCI-H1963 cells. Kind of assay: NCI-H1963 cell proliferation assay (CellTiter-Glo). The format is cell-based. The following applies: Homo sapiens, NCI-H1963, 72 h, read-out: H1963 (nM), CTG IC50. How it is done: Cell proliferation was measured using the CellTiter-Glo® Luminescent Cell Viability Assay. The assay involved the addition of a single reagent (CellTiter-Glo® Reagent) directly to cells cultured in serum-supplemented medium.
Each compound evaluated was prepared as a DMSO stock solution (10 mM). Compounds were tested in duplicate on each plate, with a 10-point serial dilution curve (1:3 dilution). Compound treatment (1.0 μL) was added from the compound dilution plate to the cell plate. The highest compound concentration was 10 μM (final), with a 0.1% final DMSO concentration. Plates were then incubated at 37° C., 5% CO2. After 48 h of compound treatment for RS4;11 or 72 h for NCI-H1963, cell plates were equilibrated at rt for approximately 30 mins. An equi-volume amount of CellTiter-Glo® Reagent (40 μL) was added to each well. […] Luminescence was recorded using a Envision plate reader according to CellTiter-Glo protocol. IC50 of each compound was calculated using GraphPad Prism by nonlinear regression analysis.

A further assay concerns the target Bcl-2 (Homo sapiens (Human), UniProt P10415). Kind of assay: Bcl-2 HTRF assay (FAM-Bak peptide). The format is binding. The settings on record: HTRF, 4 nM Bcl-2, 100 nM FAM-Bak peptide; read-out: Bc1-2 IC50.

Bcl-XL, sequence (Q07817 whole entry): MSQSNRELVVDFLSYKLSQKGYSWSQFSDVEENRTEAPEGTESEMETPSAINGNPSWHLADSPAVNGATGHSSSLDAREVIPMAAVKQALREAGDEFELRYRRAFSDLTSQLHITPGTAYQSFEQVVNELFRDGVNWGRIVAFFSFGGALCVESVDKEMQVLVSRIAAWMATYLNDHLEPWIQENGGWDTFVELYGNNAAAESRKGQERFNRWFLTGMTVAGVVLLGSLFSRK
Bcl-2, sequence (P10415 whole entry): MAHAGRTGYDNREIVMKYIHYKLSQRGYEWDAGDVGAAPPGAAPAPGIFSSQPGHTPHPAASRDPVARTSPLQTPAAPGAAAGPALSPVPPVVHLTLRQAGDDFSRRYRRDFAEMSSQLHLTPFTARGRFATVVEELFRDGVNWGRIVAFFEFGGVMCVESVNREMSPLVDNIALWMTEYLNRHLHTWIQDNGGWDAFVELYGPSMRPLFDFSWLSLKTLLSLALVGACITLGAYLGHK

For `CN(CCO)CC[C@H](CSc1ccccc1)Nc1ccc(S(=O)(=O)NC(=O)c2ccc(N3CCN(CC4=C(C56CC(C(F)F)(C5)C6)CC(C)(C)CC4)CC3)cc2)cc1S(=O)(=O)C(F)(F)F` [Example 60, (R)-4-(4-((2-(3-(difluoromethyl)bicyclo[1.1.1]pentan-1-yl)-4,4-dimethylcyclohex-1-en-1-yl)methyl)piperazin-1-yl)-N-((4-((4-((2-hydroxyethyl)(methyl)amino)-1-(phenylthio)butan-2-yl)amino)-3-((trifluoromethyl)sulfonyl)phenyl)sulfonyl)benzamide], the IC50 at Bcl-XL was no more than 10 nM; with RS4;11 cells, less than 100 nM; with NCI-H1963 cells it was 500 to 1000 nM; on Bcl-2, no more than 10 nM.
For the compound `CC1(C)CCC(CN2CCN(c3ccc(C(=O)NS(=O)(=O)c4ccc(N[C@H](CCN5CCC(O)CC5)CSc5ccccc5)c(S(=O)(=O)C(F)(F)F)c4)cc3)CC2)=C(C23CC(C(F)F)(C2)C3)C1` [Example 61, (R)-4-(4-((2-(3-(Difluoromethyl)bicyclo[1.1.1]pentan-1-yl)-4,4-dimethylcyclohex-1-en-1-yl)methyl)piperazin-1-yl)-N-((4-((4-(4-hydroxypiperidin-1-yl)-1-(phenylthio)butan-2-yl)amino)-3-((trifluoromethyl)sulfonyl)phenyl)sulfonyl)benzamide], the IC50 at Bcl-XL was no more than 10 nM; in the assay with RS4;11 cells, less than 100 nM; in the assay with NCI-H1963 cells, less than 500 nM; at Bcl-2 it was no more than 10 nM.
On to `CN(C)C1CCN(CC[C@H](CSc2ccccc2)Nc2ccc(S(=O)(=O)NC(=O)c3ccc(N4CCN(CC5=C(C67CC(C(F)F)(C6)C7)CC(C)(C)CC5)CC4)cc3)cc2S(=O)(=O)C(F)(F)F)CC1` [Example 62, (R)-4-(4-((2-(3-(Difluoromethyl)bicyclo[1.1.1]pentan-1-yl)-4,4-dimethylcyclohex-1-en-1-yl)methyl)piperazin-1-yl)-N-((4-((4-(4-(dimethylamino)piperidin-1-yl)-1-(phenylthio)butan-2-yl)amino)-3-((trifluoromethyl)sulfonyl)phenyl)sulfonyl)benzamide], for which the IC50 on Bcl-XL was no more than 10 nM; with RS4;11 cells it was 100 to 1000 nM; in the assay with NCI-H1963 cells it was less than 500 nM; on Bcl-2, no more than 10 nM.
For the compound `CN(C)CC[C@H](CSc1ccccc1)Nc1ccc(S(=O)(=O)NC(=O)c2ccc(N3CCN(CC4=C(C56CC(C(F)F)(C5)C6)CC(C)(C)CC4)CC3)cc2)cc1S(=O)(=O)C(F)(F)F` [Example 63, (R)-4-(4-((2-(3-(Difluoromethyl)bicyclo[1.1.1]pentan-1-yl)-4,4-dimethylcyclohex-1-en-1-yl)methyl)piperazin-1-yl)-N-((4-((4-(dimethylamino)-1-(phenylthio)butan-2-yl)amino)-3-((trifluoromethyl)sulfonyl)phenyl)sulfonyl)benzamide], the IC50 was no more than 10 nM at Bcl-XL, less than 100 nM with RS4;11 cells, less than 500 nM with NCI-H1963 cells and no more than 10 nM at Bcl-2.
With `CC1(C)CCC(CN2CCN(c3ccc(C(=O)NS(=O)(=O)c4ccc(N[C@H](CCN5CCNCC5)CSc5ccccc5)c(S(=O)(=O)C(F)(F)F)c4)cc3)CC2)=C(C23CC(C(F)F)(C2)C3)C1` [Example 64, (R)-4-(4-((2-(3-(difluoromethyl)bicyclo[1.1.1]pentan-1-yl)-4,4-dimethylcyclohex-1-en-1-yl)methyl)piperazin-1-yl)-N-((4-((1-(phenylthio)-4-(piperazin-1-yl)butan-2-yl)amino)-3-((trifluoromethyl)sulfonyl)phenyl)sulfonyl)benzamide], the IC50 at Bcl-XL is no more than 10 nM; in the assay with RS4;11 cells, 100 to 1000 nM; in the assay on NCI-H1963 cells, greater than 1000 nM; on Bcl-2 it was no more than 10 nM.
For the compound `CCN(CCO)CC[C@H](CSc1ccccc1)Nc1ccc(S(=O)(=O)NC(=O)c2ccc(N3CCN(CC4=C(C56CC(C(F)F)(C5)C6)CC(C)(C)CC4)CC3)cc2)cc1S(=O)(=O)C(F)(F)F` [Example 70, (R)-4-(4-((2-(3-(difluoromethyl)bicyclo[1.1.1]pentan-1-yl)-4,4-dimethylcyclohex-1-en-1-yl)methyl)piperazin-1-yl)-N-((4-((4-(ethyl(2-hydroxyethyl)amino)-1-(phenylthio)butan-2-yl)amino)-3-((trifluoromethyl)sulfonyl)phenyl)sulfonyl)benzamide], the IC50 on Bcl-XL was no more than 10 nM; in the assay on RS4;11 cells, 100 to 1000 nM; in the assay on NCI-H1963 cells it was greater than 1000 nM; at Bcl-2, no more than 10 nM.
